Measured values: US20090088419A1, “PYRIDYL ACETIC ACID COMPOUNDS” (TAKEDA PHARMACEUTICAL COMPANY LIMITED, priority 2005, published 2009)
pIC50: −log10 of the molar value. Where a name gives a salt, the structure may show the parent alone.

Legend:
[1] = target: T1, dipeptidyl peptidase IV (Rattus norvegicus, UniProt P14740); test: Determination of dipeptidyl peptidase IV inhibitory activity in rat plasma (Experimental Example 1); type: biochemical; conditions: plasma of SD rat, substrate Gly-Pro-p-NA, 30° C., absorbance 405 nm after 1 hr; Table 5
T1 construct: from tissue; host or cells: SD rat blood plasma
T1 sequence (P14740 37-767 limits assumed): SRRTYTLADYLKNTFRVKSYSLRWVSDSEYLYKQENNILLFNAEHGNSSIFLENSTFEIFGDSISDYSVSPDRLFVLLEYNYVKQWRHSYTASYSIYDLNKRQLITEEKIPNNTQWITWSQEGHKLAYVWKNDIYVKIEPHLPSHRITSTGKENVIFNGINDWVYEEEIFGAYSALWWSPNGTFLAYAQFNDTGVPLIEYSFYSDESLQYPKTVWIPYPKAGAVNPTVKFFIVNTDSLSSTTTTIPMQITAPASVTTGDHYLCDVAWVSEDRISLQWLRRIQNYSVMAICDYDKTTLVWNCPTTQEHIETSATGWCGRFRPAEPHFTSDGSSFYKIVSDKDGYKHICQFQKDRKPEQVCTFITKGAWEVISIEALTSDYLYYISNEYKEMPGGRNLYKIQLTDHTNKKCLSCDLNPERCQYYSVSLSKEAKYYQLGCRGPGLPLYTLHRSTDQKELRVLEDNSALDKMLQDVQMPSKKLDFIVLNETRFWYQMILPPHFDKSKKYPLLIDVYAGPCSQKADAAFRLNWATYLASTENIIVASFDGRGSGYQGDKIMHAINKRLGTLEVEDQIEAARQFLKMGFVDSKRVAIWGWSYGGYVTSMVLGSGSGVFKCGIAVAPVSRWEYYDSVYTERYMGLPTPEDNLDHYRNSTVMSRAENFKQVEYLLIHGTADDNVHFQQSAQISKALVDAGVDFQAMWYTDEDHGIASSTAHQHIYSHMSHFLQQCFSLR
Experimental: (§1) Determination of Dipeptidyl Peptidase IV Inhibitory Activity in Rat Plasma
(§2) A dimethylformamide solution (1 μL) containing the test compound was added to a mixture of water (69 μL), 1 M Tris-hydrochloride buffer (10 μL, pH 7.5) and 1 mM aqueous Gly-Pro-p-NA solution (100 μL) to prepare a mixed solution. Plasma (20 μL) prepared from blood of SD rat according to a conventional method was added to the above-mentioned mixed solution and the enzyme reaction was started at 30° C. The absorbance after 0 hr. and 1 hr. was measured using a microplate reader at a wavelength of 405 nm and an increase (AODs) was determined. At the same time, an increase (AODc) in absorbance of the reaction mixture without the test compound, and an increase (AODb) in absorbance of the reaction mixture without the test compound and the enzyme were determined and the inhibition rate of dipeptidyl peptidase IV enzyme activity was calculated from the following formula:
(§3) {1−[(ΔODs−ΔODb)/(ΔODc−ΔODb)]}×100
The dipeptidyl peptidase IV inhibitory activity of the test compound group is expressed in IC50 value (nM) and shown in Table 5.

[2] = target: T1, dipeptidyl peptidase IV; test: Determination of dipeptidyl peptidase IV inhibitory activity in rat plasma (Experimental Example 2); type: biochemical; conditions: plasma of SD rat, same manner as Experimental Example 1; Table 6
Experimental: as §2, §3, §1

Row | pIC50 [1] | pIC50 [2] | Structure (SMILES)
1 | – | 7.29 | CCc1nc(CC(C)(C)C)c(CN)c(-c2ccc(C)cc2)c1CC(=O)Nc1cccc(S(C)(=O)=O)c1 [Example 7, 2-[5-(aminomethyl)-2-ethyl-4-(4-methylphenyl)-6-neopentylpyridin-3-yl]-N-[3-(methylsulfonyl)phenyl]acetamide dihydrochloride]
2 | 8.77 | – | CCc1nc(CC(C)(C)C)c(CN)c(-c2ccc(C)cc2)c1CC(=O)N1C[C@@H](C)O[C@@H](C)C1 [Example 64]
3 | 9.49 | – | CCc1nc(CC(C)(C)C)c(CN)c(-c2ccc(C)cc2)c1CC(=O)N1CCC[C@H]1C(N)=O [Example 87]
4 | – | 8.29 | CCc1nc(CC(C)(C)C)c(CN)c(-c2ccc(C)cc2)c1CC(=O)Nc1cccc(C(C)=O)c1 [Example 5, N-(3-acetylphenyl)-2-[5-(aminomethyl)-2-ethyl-4-(4-methylphenyl)-6-neopentylpyridin-3-yl]acetamide dihydrochloride]
5 | 7.48 | – | CCc1nc(CC(C)C)c(CN)c(-c2ccc(C)cc2)c1CC(=O)O [Example 1, [5-(aminomethyl)-2-ethyl-6-isobutyl-4-(4-methylphenyl)pyridin-3-yl]acetic acid]
6 | 7.96 | – | CCc1nc(CC(C)(C)C)c(CN)c(-c2ccc(C)cc2)c1CC(=O)Nc1ccc(C(C)=O)cc1 [Example 80]
7 | 8.32 | – | CC(=O)N1CCN(C(=O)Cc2c(CC(C)C)nc(CC(C)C)c(CN)c2-c2ccc(C)cc2)CC1 [Example 47]
8 | 9.07 | – | Cc1ccc(-c2c(CN)c(CC(C)C)nc(CC(C)C)c2CC(=O)N2CCC(S(C)(=O)=O)C2)cc1 (stereo not shown) [Example 10, [(2,6-diisobutyl-4-(4-methylphenyl)-5-{2-[3-(methylsulfonyl)pyrrolidin-1-yl]-2-oxoethyl}pyridin-3-yl)methyl]amine ditrifluoroacetate]

The next lines start with the compound.

Row | Structure (SMILES) | pIC50 [1] | pIC50 [2]
9 | Cc1ccc(-c2c(CN)c(CC(C)C)nc(CC(C)C)c2CC(=O)N2CCC[C@H]2C(N)=O)cc1 [Example 45] | 8.70 | –
10 | CCc1nc(CC(C)(C)C)c(CN)c(-c2ccc(C)cc2)c1CC(=O)N1CCC[C@H]1C(N)=O [Example 6, 1-{[5-(aminomethyl)-2-ethyl-4-(4-methylphenyl)-6-neopentylpyridin-3-yl]acetyl}-L-prolinamide] | – | 8.57
11 | Cc1ccc(-c2c(CN)c(CC(C)C)nc(CC(C)C)c2CC(=O)O)cc1 [Example 2, [5-(aminomethyl)-2,6-diisobutyl-4-(4-methylphenyl)pyridin-3-yl]acetic acid dihydrochloride] | – | 7.46
12 | CCc1nc(CC(C)(C)C)c(CN)c(-c2ccc(C)cc2)c1CC(=O)N1CCN(C(C)=O)CC1 [Example 89] | 8.44 | –
13 | Cc1ccc(-c2c(CN)c(CC(C)C)nc(CC(C)C)c2CC(=O)N2C[C@@H](C)O[C@@H](C)C2)cc1 [Example 20] | 8.08 | –
